Results reported in US20080311214A1, “Polymerized solid lipid nanoparticles for oral or mucosal delivery of therapeutic proteins and peptides” (Transgene Biotek Limited, priority 2006, published 2008).

Test system: STZ induced diabetic rats
Experiment: Reduction in serum glucose in STZ induced diabetic rats
Format: in vivo, Wistar rats
Conditions: 10 IU/Kg insulin via subcutaneous route
Description: Wistar rats (150-200 g) of both sexes were obtained from National Institute of Nutrition, Hyderabad. The animals were housed at a room temperature of 22±2° C. with 12 h light/dark cycle and 45-50% relative humidity. The animals had ad libitum access to a standard chow diet (Nutrilab, Banglore) and water except, wherever indicated. After randomization into various groups, the rats were acclimatized for a period of seven days in the new environment before initiation of the experiment.
Diabetes was induced by streptozotocin (STZ) injection. STZ in rats leads to the development of a clinical syndrome characterized by hyperglycemia, excessive osmotic diuresis, and loss of weight, which is similar to human diabetes. Moreover, the STZ-diabetic rat develops the usual chronic microvascular complications (nephropathy, peripheral and autonomic neuropathy) as observed in diabetic patients. Schaan, B. D., et al. Braz J Med Biol Res, 37:12:1895-1902 (2004).
Animals were made diabetic by injecting 50-60 mg/kg STZ dissolved in sodium citrate buffer, pH 4.5. Rats were fasted overnight before STZ administration. STZ-treated rats were used only when they developed elevated plasma glucose levels (confirmed by qualitative measurements of blood glucose >300 mg% 48 h after injection). Metabolic control was evaluated on the basis of plasma glucose and animal weight at the end of the experiments.
The diabetic rats were randomly divided in to six groups consisting of 4 animals. The lyophilized lectin coupled insulin loaded solid lipid nanoparticle formulations (F1, F2, F3 and F4), mentioned in the above examples, containing 10 IU/Kg of total insulin were administered orally to the respective groups after re-dispersing in the appropriate volume of physiological saline solution. The fifth group was treated with 10 IU/Kg of insulin via subcutaneous route and the sixth group was the control group. The control diabetic rats were not treated with insulin or any drug, but an equivalent volume of physiological saline solution was given orally.
The blood samples were collected at each scheduled time intervals. The plasma was separated by centrifugation and serum glucose levels were estimated as described in Bergmeyer, H. U. Methods of Enzymatic Analysis New York: Academic (1974). Plasma samples of all animals were stored at −80° C. until analyzed.

Question: For insulin [Unencapsulated Insulin], which “Mean % Reduction in serum Glucose Levels” value (2.0 hrs) is on record?
Answer: Its value is 8.2 ± 2.3%.

Question: What about the “Mean % Reduction in serum Glucose Levels” value (3.0 hrs) of the same substance?
Answer: The value was 15.1 ± 1.2%.

Question: What about the “Mean % Reduction in serum Glucose Levels” value (4.0 hrs) of the same substance?
Answer: Its value is 23.2 ± 3.2%.

Question: What about the “Mean % Reduction in serum Glucose Levels” value (5.0 hrs) of the same substance?
Answer: Its value is 36.2 ± 1.2%.

Question: What about the “Mean % Reduction in serum Glucose Levels” value (6.0 hrs) of the same substance?
Answer: The value was 12.1 ± 4.3%.

Question: What about the “Mean % Reduction in serum Glucose Levels” value (8.0 hrs) of the same substance?
Answer: The value was 19.2 ± 3.3%.

Question: And the “Mean % Reduction in serum Glucose Levels” value (10.0 hrs)?
Answer: The value was 25.1 ± 3.2%.

Question: What about the “Mean % Reduction in serum Glucose Levels” value (12.0 hrs) of the same substance?
Answer: The value was 29.2 ± 1.2%.
